System: Epithelial cells
Test: Interaction of GFP-labelled complexes with cell membrane of epithelial cells (Example II-52, Table II-30)
Format: cell-based
Conditions: GFP-labelled complex, epithelial cells pretreated 4 hours, n=3
Procedure: The fatty acids were combined with water-soluble small molecules to form a complex, which were labeled with GFP fluorescence to detect cell membrane fluorescence. […] After the cells were stably adhered, the water-soluble fatty acid complexes in the following table were added to the cell culture medium. […] The medium with the drug was pipetted and replaced with normal DMEM medium. […] The green fluorescence intensity was analyzed by imageJ (see Table II-30, n=3).

SMILES	Mean fluorescence intensity (0 Hours after medium replaced)	Mean fluorescence intensity (2 Hours after medium replaced)	Mean fluorescence intensity (4 Hours after medium replaced)	Mean fluorescence intensity (8 Hours after medium replaced)	Mean fluorescence intensity (12 Hours after medium replaced)	Mean fluorescence intensity (24 Hours after medium replaced)
Nc1ncnc2c1ncn2[C@@H]1O[C@H](COP(=O)(O)O)[C@@H](O)[C@H]1O.O=C(O)/C=C/C(=O)O [Adenosine monophosphate-fumaric acid]	125.1 ± 7.6	120.5 ± 7.4	113.3 ± 4.6	50.0 ± 2.4	35.8 ± 4.6	31.3 ± 4.4
NC(COC(=O)CCCCCCCCCCC(=O)O)C(=O)O (stereo not drawn) [Ser-dodecanedioic acid]	127.3 ± 3.5	126.3 ± 5.2	118.3 ± 7.3	69.3 ± 8.4	59.3 ± 5.5	45.3 ± 1.6
CCCCCCCCCCCCCCCC(=O)OC(C)C(N)C(=O)O (stereo not drawn) [Thr-palmitic acid]	123.3 ± 6.6	124.4 ± 7.5	119.5 ± 4.1	69.2 ± 7.5	45.3 ± 5.8	42.5 ± 5.7
CCCCCCCC(=O)NCCCCC(N)C(=O)O (stereo not drawn) [Lys-n-octanoic acid]	103.4 ± 3.1	99.3 ± 7.9	92.4 ± 7.7	45.4 ± 4.7	30.4 ± 7.5	24.2 ± 8.5
CCCCCCC=CCCCCCCCC(=O)OCC1OC(O)C(O)C(O)C1O (stereo not drawn) [Glucose-c-9-hexadecenoic acid]	126.3 ± 2.5	113.5 ± 8.2	105.5 ± 6.8	87.5 ± 6.8	64.3 ± 5.1	43.5 ± 5.0
CCCCCCCCCCCCCC(=O)OCC(O)C1OC(=O)C(O)=C1O (stereo not drawn) [Vc-tetradecanoic acid]	115.4 ± 4.6	100.2 ± 3.7	87.2 ± 4.6	41.2 ± 9.4	33.6 ± 5.2	27.5 ± 7.3
CCC/C=C/C(=O)OCC(N)C(=O)O (stereo not drawn) [Ser-t-2-hexenoic acid]	104.3 ± 5.2	101.3 ± 8.6	95.4 ± 4.5	39.9 ± 8.4	32.5 ± 3.6	29.8 ± 5.2
CCCCCCCCC/C=C/C(=O)OCC1OC(O)C(O)C(O)C1O (stereo not drawn) [Glucose-t-2-dodecenoic acid]	129.3 ± 0.6	122.0 ± 6.6	109.6 ± 5.6	63.4 ± 6.0	45.7 ± 4.6	38.5 ± 8.2
CCCCCCCCCCC(=O)OC(C)C(N)C(=O)O (stereo not drawn) [Thr-undecanoic acid]	129.5 ± 7.6	123.5 ± 3.5	118.7 ± 5.7	43.6 ± 9.3	35.3 ± 4.0	24.6 ± 3.8
CCCCCC=CCC=CCCCCCCCC(=O)OC(C)C(N)C(=O)O (stereo not drawn) [Thr-linoleic acid]	127.9 ± 6.6	122.3 ± 4.7	102.0 ± 1.5	65.2 ± 5.6	45.0 ± 2.5	41.5 ± 7.2
CC/C=C\C/C=C\C/C=C\C/C=C\C/C=C\C/C=C\CCC(=O)OCC(O)C1OC(=O)C(O)=C1O (stereo not drawn) [Vc-DHA]	126.3 ± 7.4	115.4 ± 5.2	109.8 ± 4.9	52.0 ± 6.1	42.0 ± 3.4	37.9 ± 4.6
O=C(O)CCCCCCCCCC(=O)OCC(O)C1OC(=O)C(O)=C1O (stereo not drawn) [Vc-undecanedioic acid]	124.4 ± 4.5	116.4 ± 0.7	112.1 ± 6.3	65.3 ± 3.6	41.3 ± 9.3	35.4 ± 1.6
CC(OC(=O)CCCCCCC(=O)O)C(N)C(=O)O (stereo not drawn) [Thr-octanedioic acid]	125.3 ± 4.2	122.4 ± 7.5	115.4 ± 6.8	55.4 ± 7.8	45.0 ± 6.3	35.3 ± 5.9
NC(COC(=O)CCCCCCCCCCCCCCC(=O)O)C(=O)O (stereo not drawn) [Ser-hexadecanedioic acid]	119.6 ± 9.4	116.2 ± 5.1	93.4 ± 5.3	63.9 ± 4.1	46.0 ± 3.6	37.6 ± 6.7
NC(COC(=O)CCCCCCCCCCCCCCCCC(=O)O)C(=O)O (stereo not drawn) [Ser-octadecanedioic acid]	136.2 ± 8.5	127.3 ± 1.6	102.3 ± 4.4	76.2 ± 4.6	53.9 ± 7.2	42.4 ± 5.5
CCC=CCC=CCC=CCC=CCC=CCCCC(=O)NCCCCC(N)C(=O)O (stereo not drawn) [Lys-EPA]	123.3 ± 8.8	119.2 ± 3.7	109.4 ± 1.7	66.4 ± 4.7	39.4 ± 5.8	32.5 ± 4.5
CC=CC(=O)NCCCCC(N)C(=O)O (stereo not drawn) [Lys-crotonic acid]	119.3 ± 3.4	120.0 ± 6.6	98.3 ± 5.5	55.9 ± 6.7	46.9 ± 3.6	40.4 ± 5.3
CCCC(=O)OC(C)C(N)C(=O)O (stereo not drawn) [Thr-n-butyric acid]	126.4 ± 4.6	121.4 ± 4.6	115.0 ± 0.4	60.41 ± 3.4	34.91 ± 5.6	30.67 ± 4.5
NC(COC(=O)CCCCCCCCCCCCCCCCCCCCC(=O)O)C(=O)O (stereo not drawn) [Ser-docosanedioic acid]	114.5 ± 3.3	101.4 ± 6.9	95.4 ± 5.5	74.4 ± 2.4	34.5 ± 5.5	20.4 ± 4.4
CCCCC/C=C/C(=O)OCC1OC(O)C(O)C(O)C1O (stereo not drawn) [Glucose-t-2-octenoic acid]	99.4 ± 3.6	92.5 ± 4.0	61.4 ± 4.2	42.3 ± 3.3	36.4 ± 4.3	32.4 ± 6.6
CCCCCCCCC=CCCCCCCCCCCCC(=O)OC(C)C(N)C(=O)O (stereo not drawn) [Thr-erucic acid]	137.4 ± 5.8	121.3 ± 5.5	105.2 ± 7.3	79.5 ± 4.8	48.3 ± 1.2	42.4 ± 4.6
